Like-named read-outs stand apart in the source and are kept apart here.

The target of assay [1] is T1, recombinant human kappa opioid receptor (Homo sapiens, UniProt P41145).
T1 construct: expressed in transfected cells; host or cells: HEK293 (membranes)
The assay can be described thus: biochemical. As to conditions: membranes of HEK293 cells; radioligand [3H]diprenorphine 0.5 nM; read-out: Binding Affinity Kappa IC50.

Assay [2] deals with T2, recombinant human delta opioid receptor (Homo sapiens, UniProt P41143).
T2 construct: expressed in transfected cells; host or cells: HEK293 (membranes)
The assay can be described thus: Opioid receptor radioligand binding assay, delta. The settings on record: for IC50: radioligand [3H]DADLE 0.5 nM; for Selectivity δ/k: ratio of Delta IC50 to Kappa IC50.

Assay [3] concerns the target T3, recombinant human mu opioid receptor (Homo sapiens, UniProt P35372).
T3 construct: expressed in transfected cells; host or cells: HEK293 (membranes)
Put plainly: Opioid receptor radioligand binding assay, mu. As to conditions: for IC50: radioligand [3H]DAMGO 0.5 nM; for Selectivity μ/k: ratio of Mu IC50 to Kappa IC50.

The target in assay [4] is T1, recombinant human kappa opioid receptor. The assay can be described thus: cell-based. The assay is classed as cell-based. The settings on record: for EC50: read-out: Cell Assay (FLIPR Calcium) Kappa EC50.
[5] abbreviates: Binding Affinity Delta IC50, membranes of HEK293 cells.
Setting [6] is: Binding Affinity Mu IC50, membranes of HEK293 cells.
Where [7] appears, read: membranes of HEK293 cells, read-out: Binding Affinity Delta IC50.
[8] abbreviates: membranes of HEK293 cells, read-out: Binding Affinity Mu IC50.

T2 sequence (P41143 whole entry): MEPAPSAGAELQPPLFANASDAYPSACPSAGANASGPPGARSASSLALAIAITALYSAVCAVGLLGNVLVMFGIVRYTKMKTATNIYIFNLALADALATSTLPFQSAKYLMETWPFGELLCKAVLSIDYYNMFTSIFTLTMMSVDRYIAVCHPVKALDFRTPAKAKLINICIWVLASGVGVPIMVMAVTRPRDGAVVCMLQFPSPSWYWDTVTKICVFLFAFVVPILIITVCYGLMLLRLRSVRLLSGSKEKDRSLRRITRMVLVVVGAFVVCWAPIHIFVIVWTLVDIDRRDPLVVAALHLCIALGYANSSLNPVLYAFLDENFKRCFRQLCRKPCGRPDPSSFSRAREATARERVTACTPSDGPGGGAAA
T1 sequence (P41145 whole entry): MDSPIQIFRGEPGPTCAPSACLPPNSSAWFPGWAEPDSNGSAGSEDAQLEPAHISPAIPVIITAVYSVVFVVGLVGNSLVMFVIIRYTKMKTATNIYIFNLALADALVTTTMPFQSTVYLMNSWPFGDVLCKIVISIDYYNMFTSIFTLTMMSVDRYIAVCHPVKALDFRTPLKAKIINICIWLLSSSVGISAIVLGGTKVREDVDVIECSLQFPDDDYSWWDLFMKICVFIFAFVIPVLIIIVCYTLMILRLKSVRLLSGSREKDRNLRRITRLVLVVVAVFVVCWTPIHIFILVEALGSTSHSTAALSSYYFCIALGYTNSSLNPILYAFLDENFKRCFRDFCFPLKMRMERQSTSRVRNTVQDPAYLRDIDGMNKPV
T3 sequence (P35372 whole entry): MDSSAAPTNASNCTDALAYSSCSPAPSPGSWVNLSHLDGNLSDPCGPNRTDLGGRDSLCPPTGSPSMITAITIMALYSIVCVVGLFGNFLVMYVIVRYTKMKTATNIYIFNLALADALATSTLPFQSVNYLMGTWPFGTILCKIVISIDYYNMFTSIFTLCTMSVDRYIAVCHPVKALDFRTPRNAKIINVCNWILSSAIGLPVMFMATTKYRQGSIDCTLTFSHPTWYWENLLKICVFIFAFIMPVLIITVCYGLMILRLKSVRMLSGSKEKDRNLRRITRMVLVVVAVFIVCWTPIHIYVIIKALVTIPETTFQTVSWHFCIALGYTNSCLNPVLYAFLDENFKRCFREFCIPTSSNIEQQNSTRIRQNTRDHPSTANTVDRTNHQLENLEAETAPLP

Take `CN(C(=O)C1CC1c1ccc(O)cc1)C1CCC2(O)C3Cc4ccc(O)c5c4C2(CCN3CC2(O)CC2)C1O5` (single isomer, unassigned) [Compound 20a]: the IC50 turned out to be 102 nM in assay [1], 161 nM in assay [2] (setting [5]) and 119 nM in assay [3] (setting [6]). The “Selectivity δ/k” value in assay [2] was 1.57. Further, the “Selectivity μ/k” value in assay [3] stood at 1.12.

Consider `CN(C(=O)C1CC1c1ccsc1)C1CCC2(O)C3Cc4ccc(O)c5c4C2(CCN3CC2(O)CC2)C1O5` (single isomer, unassigned) [Compound 18b], for which the IC50 in assay [1] was 6.15 nM; in assay [2] (setting [5]) it was 118 nM; in assay [3] (setting [6]) it was 76.8 nM. In addition, in assay [2], the “Selectivity δ/k” value was determined as 19.2. Moreover, the “Selectivity μ/k” value in assay [3] is 12.5.

Consider `CN(C(=O)[C@@H]1C[C@H]1c1ccc(O)cc1)[C@@H]1CC[C@@]2(O)[C@H]3Cc4ccc(O)c5c4[C@@]2(CCN3CC2(O)CC2)[C@H]1O5` [Compound 21b], for which the values for the IC50 in assay [1], in assay [2] (setting [5]) and in assay [3] (setting [6]) were greater than 200 nM, 385 nM and 114 nM, respectively. For the same compound, in assay [2], the “Selectivity δ/k” value is reported as less than 1.93. Moreover, in assay [3], the “Selectivity μ/k” value was less than 0.57.

Regarding `CN(C(=O)[C@H]1C[C@@H]1c1ccoc1)[C@@H]1CC[C@@]2(O)[C@H]3Cc4ccc(O)c5c4[C@@]2(CCN3CC2CC2)[C@H]1O5` [Compound 5a, 17-Cyclopropylmethyl-4,5α-epoxy-3,14β-dihydroxy-6β-((1S,2S)—N-methyl-2-(3-furyl)-cyclopropanecarboxamido)morphinan], the results for the IC50 in assay [1], in assay [2] (setting [5]) and in assay [3] (setting [6]) were 0.42 nM, 86.5 nM and 10.7 nM, respectively. In addition, the “Selectivity δ/k” value in assay [2] is 207.59. Besides, the “FLIPR calcium cell assay compared with reference” value in assay [4] (comparison in words on Table 2) is on record as “improved cell assays over U-69596”. Besides, in assay [4], the EC50 – broadly, the midpoint of the concentration-response curve – is 2.64 nM.

As for `CN(C(=O)[C@@H]1C[C@H]1c1ccsc1)[C@@H]1CC[C@@]2(O)[C@H]3Cc4ccc(O)c5c4[C@@]2(CCN3CC2(O)CC2)[C@H]1O5` [Compound 19b], the IC50 in assay [1] turned out to be 0.46 nM; in assay [2] (setting [5]), 147 nM; in assay [3] (setting [6]), 5.98 nM. Besides, the “Selectivity δ/k” value in assay [2] amounted to 319. In addition, the “Selectivity μ/k” value in assay [3] was 13.0.

Regarding “17-cyclopropylmethyl-10-oxo-4,5α-epoxy-3,14β-dihydroxy-6β-((1S,2S)—N-methyl-2-(3-(4-hydroxylphenyl)-cyclopropanecarboxamido)morphinan [Compound 23a]”, the IC50 stood at 0.07 nM in assay [1], 261 nM in assay [2] (setting [7]) and 12.2 nM in assay [3] (setting [8]). The “Selectivity δ/k” value in assay [2] was 3731. The “Selectivity μ/k” value in assay [3] was found to be 174.3.

Consider `CN(C(=O)C1CC1c1ccoc1)C1CCC2(O)C3Cc4ccc(O)c5c4C2(CCN3CC2(O)CC2)C1O5` (single isomer, unassigned) [Compound 16b], for which the IC50 was 6.74 nM in assay [1], 34 nM in assay [2] (setting [5]) and 7.18 nM in assay [3] (setting [6]). In addition, the “Selectivity δ/k” value in assay [2] is 5.05. In addition, the “Selectivity μ/k” value in assay [3] is 1.07.

Turning to `CN(C(=O)C1CC1c1ccc(O)cc1)C1CCC2(O)C3Cc4ccc(O)c5c4C2(CCN3CC2(O)CC2)C1O5` (single isomer, unassigned) [Compound 21a], the IC50 amounted to 0.85 nM in assay [1], 30.2 nM in assay [2] (setting [5]) and 1.25 nM in assay [3] (setting [6]). In assay [2], the “Selectivity δ/k” value stood at 35.6. Besides, the “Selectivity μ/k” value in assay [3] was determined as 1.47.

For the compound `CN(C(=O)[C@@H]1C[C@H]1c1ccoc1)[C@@H]1CC[C@@]2(O)[C@H]3Cc4ccc(O)c5c4[C@@]2(CCN3CC2CC2)[C@H]1O5` [Compound 5b, 17-Cyclopropylmethyl-4,5α-epoxy-3,14β-dihydroxy-6β-((1R,2R)—N-methyl-2-(3-furyl)-cyclopropanecarboxamido)morphinan], the values for the IC50 in assay [1], in assay [2] (setting [5]) and in assay [3] (setting [6]) were 7.76 nM, 69 nM and 3.47 nM, respectively. Further, the “Selectivity δ/k” value in assay [2] is given as 8.90. Moreover, in assay [3], the “Selectivity μ/k” value is given as 0.45. Besides, the EC50 in assay [4] came to 9.7 nM.

`CN(C(=O)[C@@H]1C[C@H]1c1ccoc1)[C@@H]1CC[C@@]2(O)[C@H]3Cc4ccc(O)c5c4[C@@]2(CCN3CC2(O)CC2)[C@H]1O5` [Compound 17b]: the IC50 in assay [1] was determined as 6.49 nM; in assay [2] (setting [5]) it was 71.6 nM; in assay [3] (setting [6]), 45.4 nM. Further, the “Selectivity δ/k” value in assay [2] is 11.0. The “Selectivity μ/k” value in assay [3] was determined as 6.99.

With `CN(C(=O)C1CC1c1ccsc1)C1CCC2(O)C3Cc4ccc(O)c5c4C2(CCN3CC2(O)CC2)C1O5` (single isomer, unassigned) [Compound 18a], the IC50 in assay [1] is 0.97 nM; in assay [2] (setting [5]), 10.9 nM; in assay [3] (setting [6]), 1.58 nM. In addition, the “Selectivity δ/k” value in assay [2] is recorded as 11.3. In addition, the “Selectivity μ/k” value in assay [3] stood at 1.63.

With `CN(C(=O)[C@@H]1C[C@H]1c1ccc(O)cc1)[C@H]1CC[C@@]2(O)[C@H]3Cc4ccc(O)c5c4[C@@]2(CCN3CC2(O)CC2)[C@H]1O5` [Compound 20b], the figures for the IC50 in assay [1], in assay [2] (setting [5]) and in assay [3] (setting [6]) were 16 nM, 11.8 nM and 8.08 nM, respectively. In assay [2], the “Selectivity δ/k” value is 0.73. The “Selectivity μ/k” value in assay [3] is 0.50.

`CN(C(=O)[C@H]1C[C@@H]1c1ccoc1)[C@H]1CC[C@@]2(O)[C@H]3Cc4ccc(O)c5c4[C@@]2(CCN3CC2CC2)[C@H]1O5` [Compound 7a, 17-Cyclopropylmethyl-4,5α-epoxy-3,14β-dihydroxy-6α-((1S,2S)—N-methyl-2-(3-furyl)-cyclopropanecarboxamido)morphinan]: the IC50 in assay [1] amounted to 0.05 nM; in assay [2] (setting [5]), 0.66 nM; in assay [3] (setting [6]), 0.3 nM. Further, the “Selectivity δ/k” value in assay [2] is 12.6. Further, in assay [3], the “Selectivity μ/k” value stood at 5.85. For the same compound, the EC50 in assay [4] worked out at 6.86 nM.

As to `CN(C(=O)C1CC1c1ccsc1)C1CCC2(O)C3Cc4ccc(O)c5c4C2(CCN3CC2(O)CC2)C1O5` (single isomer, unassigned) [Compound 19a], the IC50 in assay [1] came to 0.17 nM; in assay [2] (setting [5]), 16.3 nM; in assay [3] (setting [6]), 1.37 nM. Further, the “Selectivity δ/k” value in assay [2] stood at 96.1. Moreover, in assay [3], the “Selectivity μ/k” value was determined as 8.05.

In the case of `CN(C(=O)[C@@H]1C[C@H]1c1ccoc1)[C@H]1CC[C@@]2(O)[C@H]3Cc4ccc(O)c5c4[C@@]2(CCN3CC2CC2)[C@H]1O5` [Compound 7b, 17-Cyclopropylmethyl-4,5α-epoxy-3,14β-dihydroxy-6α-((1R,2R)—N-methyl-2-(3-furyl)-cyclopropanecarboxamido)morphinan], the IC50 worked out at 0.24 nM in assay [1], 0.68 nM in assay [2] (setting [5]) and 0.52 nM in assay [3] (setting [6]). In addition, the “Selectivity δ/k” value in assay [2] was 2.82. Further, in assay [3], the “Selectivity μ/k” value is 2.16. The EC50 in assay [4] is 3.76 nM.

With “17-cyclopropylmethyl-10-oxo-4,5α-epoxy-3,14β-dihydroxy-6β-((1R,2R)—N-methyl-2-(3-(4-hydroxylphenyl)-cyclopropanecarboxamido)morphinan [Compound 23b]”, the figures for the IC50 in assay [1], in assay [2] (setting [7]) and in assay [3] (setting [8]) were 0.62 nM, 528 nM and 73.7 nM, respectively. Besides, the “Selectivity δ/k” value in assay [2] is recorded as 1331. Also, the “Selectivity μ/k” value in assay [3] is 118.9.

As for `CN(C(=O)C1CC1c1ccoc1)C1CCC2(O)C3Cc4ccc(O)c5c4C2(CCN3CC2(O)CC2)C1O5` (single isomer, unassigned) [Compound 16a], the IC50 in assay [1] was determined as 0.94 nM; in assay [2] (setting [5]), 5.46 nM; in assay [3] (setting [6]), 1.55 nM. In addition, the “Selectivity δ/k” value in assay [2] came to 5.80. The “Selectivity μ/k” value in assay [3] was found to be 1.65.

On to `CN(C(=O)[C@H]1C[C@@H]1c1ccoc1)[C@@H]1CC[C@@]2(O)[C@H]3Cc4ccc(O)c5c4[C@@]2(CCN3CC2(O)CC2)[C@H]1O5` [Compound 17a, 17-(1-hydroxylcyclopropylmethyl)-4,5α-epoxy-3,14β-dihydroxy-6β-((1S,2S)—N-methyl-2-(3-furyl)-cyclopropanecarboxamido)morphinan], for which the IC50 in assay [1] is 1.22 nM; in assay [2] (setting [5]) it was 43.1 nM; in assay [3] (setting [6]), 4.96 nM. Also, the “Selectivity δ/k” value in assay [2] worked out at 35.3. In addition, the “Selectivity μ/k” value in assay [3] amounted to 4.07.

(Values after patent publication US11214577B2, “Morphinans useful for treating medical disorders” (priority 2019, dated 2022).)
